These are literature values, as cited in patent publication US10660869B2, “Lactate powder and method for the preparation thereof” (Purac Biochem B.V., priority 2012, dated 2020).

For the data set the following is noted: 1000 mg of sample dissolved in 240 ml water.

Consider `CC(O)C(=O)[O-].CC(O)C(=O)[O-].O.O.O.O.O.[Ca+2]` (stereo not shown) [PURACAL® PP/FCC, calcium lactate pentahydrate], for which the typical dissolution time is 25 s.
